Here are results for 3 compounds from patent publication US12077503B2, “Substituted cyclic amides and their use as herbicides” (FMC CORPORATION, priority 2015, dated 2024).

Assay type in all cases: in vivo
In experiment [1] the test system is blackgrass (Alopecurus myosuroides). The experiment in a line: Test A postemergence. The following applies: Alopecurus myosuroides, post-emergence, 240 h, Postemergence, read-out: Plant response rating, Blackgrass; for pest or weed control at 125 g/ha: 125 g ai/ha, visual injury after approx. 10 d, 0 to 100 scale, 0 no effect, 100 complete control; for pest or weed control at 500 g/ha: 500 g ai/ha, visual injury, 0 to 100 scale (0 no effect, 100 complete control), approx. 10 d. An outline of the steps: (§1)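 In a loam soil and sand blend, planted seeds got a preemergence directed soil spray, and young plants at the one- to two-leaf stage, 2–10 cm high, got a postemergence application; ~10 d greenhouse hold; injury rated visually, 0 = none, 100 = complete control.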

For experiment [2], the system named is giant foxtail (Setaria faberii). The experiment can be described thus: Test A postemergence. The settings on record: Setaria faberi, post-emergence, 240 h, Postemergence, read-out: Plant response rating, Foxtail, Giant; for pest or weed control at 125 g/ha: 125 g ai/ha, visual injury after approx. 10 d, 0 to 100 scale, 0 no effect, 100 complete control; for pest or weed control at 500 g/ha: 500 g ai/ha, visual injury, 0 to 100 scale (0 no effect, 100 complete control), approx. 10 d. An outline of the steps: as §1

Experiment [3] has as its system pigweed (Amaranthus retroflexus). The experiment can be described thus: Test A postemergence. The settings on record: Amaranthus retroflexus, post-emergence, 240 h, Postemergence, read-out: Plant response rating, Pigweed; for pest or weed control at 125 g/ha: 125 g ai/ha, visual injury after approx. 10 d, 0 to 100 scale, 0 no effect, 100 complete control; for pest or weed control at 500 g/ha: 500 g ai/ha, visual injury, 0 to 100 scale (0 no effect, 100 complete control), approx. 10 d. An outline of the steps: as §1

For experiment [4], the system named is ragweed (common ragweed, Ambrosia elatior). The experiment can be described thus: Test A postemergence. The settings on record: Ambrosia artemisiifolia, post-emergence, 240 h, Postemergence, read-out: Plant response rating, Ragweed; for pest or weed control at 125 g/ha: 125 g ai/ha, visual injury after approx. 10 d, 0 to 100 scale, 0 no effect, 100 complete control; for pest or weed control at 500 g/ha: 500 g ai/ha, visual injury, 0 to 100 scale (0 no effect, 100 complete control), approx. 10 d. The method in brief: as §1

The test system of experiment [5] is ryegrass, Italian (Italian ryegrass, Lolium multiflorum). The experiment can be described thus: Test A postemergence. The settings on record: Lolium multiflorum, post-emergence, 240 h, Postemergence, read-out: Plant response rating, Ryegrass, Italian; for pest or weed control at 125 g/ha: 125 g ai/ha, visual injury after approx. 10 d, 0 to 100 scale, 0 no effect, 100 complete control; for pest or weed control at 500 g/ha: 500 g ai/ha, visual injury, 0 to 100 scale (0 no effect, 100 complete control), approx. 10 d. An outline of the steps: as §1

Experiment [6] deals with Galium (catchweed bedstraw, Galium aparine). The experiment can be described thus: Test A postemergence. The following applies: Galium, post-emergence, 240 h, Postemergence, read-out: Plant response rating, Galium; for pest or weed control at 125 g/ha: 125 g ai/ha, visual injury after approx. 10 d, 0 to 100 scale, 0 no effect, 100 complete control; for pest or weed control at 500 g/ha: 500 g ai/ha, visual injury, 0 to 100 scale (0 no effect, 100 complete control), approx. 10 d. The method in brief:
as §1

Experiment [7] concerns barnyardgrass (Echinochloa crus-galli). The experiment can be described thus: Test A postemergence. The settings on record: Echinochloa crus-galli, post-emergence, 240 h, Postemergence, read-out: Plant response rating, Barnyardgrass; for pest or weed control at 125 g/ha: 125 g ai/ha, visual injury after approx. 10 d, 0 to 100 scale, 0 no effect, 100 complete control; for pest or weed control at 500 g/ha: 500 g ai/ha, visual injury, 0 to 100 scale (0 no effect, 100 complete control), approx. 10 d. An outline of the steps:
as §1

In another experiment the test system is corn (Zea mays). The experiment can be described thus: Test A postemergence. The settings on record: Zea mays, post-emergence, 240 h, Postemergence; for Corn plant response rating (crop injury, 0 = no effect, 100 = complete kill) at 125 g/ha: 125 g ai/ha, visual injury after approx. 10 d, 0 to 100 scale, 100 complete control; for Corn plant response rating (crop injury, 0 = no effect, 100 = complete kill) at 500 g/ha: 500 g ai/ha, visual injury, 0 to 100 scale (0 no effect, 100 complete control), approx. 10 d. An outline of the steps: as §1

Experiment [8] deals with wheat (Triticum aestivum). The experiment can be described thus: Test A postemergence. The following applies: Triticum aestivum, post-emergence, 240 h, Postemergence, read-out: Plant response rating, Wheat; for plant injury at 125 g/ha: 125 g ai/ha, visual injury after approx. 10 d, 0 to 100 scale, 0 no effect, 100 complete control; for plant injury at 500 g/ha: 500 g ai/ha, visual injury, 0 to 100 scale (0 no effect, 100 complete control), approx. 10 d. An outline of the steps:
as §1

The test system of another experiment is Kochia (Kochia scoparia). The experiment in a line: Test A postemergence. The following applies: Bassia scoparia, post-emergence, 240 h, Postemergence, read-out: Plant response rating, Kochia; for pest or weed control at 125 g/ha: 125 g ai/ha, visual injury after approx. 10 d, 0 to 100 scale, 0 no effect, 100 complete control; for pest or weed control at 500 g/ha: 500 g ai/ha, visual injury, 0 to 100 scale (0 no effect, 100 complete control), approx. 10 d. The method in brief:
as §1

Experiment [9] has as its system sedge, umbrella (small-flower umbrella sedge, Cyperus difformis). The experiment can be described thus: Test B flooded paddy test. The following applies: Cyperus difformis, 360 h, Flood, 250 g ai/ha; visually evaluated after 13 to 15 d; read-out: Plant response rating, Sedge, Umbrella (0 to 100 scale where 0 is no effect and 100 is complete control). The method in brief: (§2)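 Plants at 2-leaf stage flooded to 3 cm above soil, with compounds applied directly to paddy water and that depth maintained. Plants kept in greenhouse 13–15 d. Visual rating versus controls on a 0 (no effect) to 100 (complete control) scale.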

The next experiment deals with rice (Oryra sativa). The experiment can be described thus: Test B flooded paddy test. The following applies: Oryza sativa, 360 h, Flood, 250 g ai/ha; visually evaluated after 13 to 15 d; read-out: Plant response rating, Rice (0 to 100 scale where 0 is no effect and 100 is complete control). An outline of the steps: as §2
Experiment [10] concerns ducksalad (Heteranthera limosa). The experiment can be described thus: Test B flooded paddy test. The settings on record: Heteranthera limosa, 360 h, Flood, 250 g ai/ha; visually evaluated after 13 to 15 d; read-out: Plant response rating, Ducksalad (0 to 100 scale where 0 is no effect and 100 is complete control). The method in brief: as §2
Experiment [11] concerns barnyardgrass (Echinochloa crus-galli). The experiment in a line: Test B flooded paddy test. The following applies: Echinochloa crus-galli, 360 h, Flood, 250 g ai/ha; visually evaluated after 13 to 15 d; read-out: Plant response rating, Barnyardgrass (0 to 100 scale where 0 is no effect and 100 is complete control). The method in brief:
as §2

Turning to `O=C1NC[C@H](c2cccc(C(F)(F)F)n2)[C@H]1C(=O)Nc1cccc(F)c1F` [Compound 1385], the pest or weed control at 125 g/ha in experiment [1] was determined as 20%; in experiment [2] it was 70%; in experiment [3] it was 0%; in experiment [4] it was 0%; in [5], 0%; in experiment [6], 30%. For the same compound, the values for the pest or weed control at 125 g/ha (in experiment [7]; in the experiment with Kochia (Kochia scoparia)) were 80% and 0%, respectively. For the same compound, the pest or weed control at 500 g/ha was determined as 20% in experiment [1]; 90% in experiment [2]; 0% in [3]; 0% in experiment [4]; 20% in [5]; 50% in experiment [6]. The pest or weed control at 500 g/ha in [7] is 90%; in the experiment on Kochia (Kochia scoparia) it was 0%. The compound also displayed a Corn plant response rating (crop injury, 0 = no effect, 100 = complete kill) at 125 g/ha in the experiment on corn (Zea mays) of 0%. The Corn plant response rating (crop injury, 0 = no effect, 100 = complete kill) at 500 g/ha in the experiment with corn (Zea mays) worked out at 20%. In addition, the plant injury at 125 g/ha in [8] was 0%. Moreover, the plant injury at 500 g/ha in experiment [8] worked out at 20%. The pest or weed control at 250 g/ha in [9] came to 0%; in the experiment on rice (Oryra sativa) it was 0%; in experiment [10], 40%; in [11], 0%.

As for `CSc1ccccc1NC(=O)[C@H]1C(=O)N(C)C[C@@H]1c1ccc(C(F)(F)F)cc1` [Compound 1391], the pest or weed control at 125 g/ha is 40% in experiment [1]; 90% in [2]; 70% in [3]; 20% in experiment [4]; 40% in [5]; 70% in [6]. Further, the figures for the pest or weed control at 125 g/ha (in [7]; in the experiment with Kochia (Kochia scoparia)) were 90% and 70%, respectively. Besides, the pest or weed control at 500 g/ha in experiment [1] was 70%; in experiment [2], 90%; in experiment [3], 90%; in experiment [4], 60%; in [5], 60%; in experiment [6], 70%. Further, the pest or weed control at 500 g/ha in experiment [7] came to 100%; with Kochia (Kochia scoparia) it was 80%. In addition, the Corn plant response rating (crop injury, 0 = no effect, 100 = complete kill) at 125 g/ha with corn (Zea mays) came out at 0%. In the experiment with corn (Zea mays), this compound had a Corn plant response rating (crop injury, 0 = no effect, 100 = complete kill) at 500 g/ha of 80%. Further, in [8], the plant injury at 125 g/ha is 30%. For the same compound, in experiment [8], the plant injury at 500 g/ha is 60%. Moreover, the pest or weed control at 250 g/ha in [9] is 0%; with rice (Oryra sativa), 0%; in experiment [10], 75%; in [11], 0%.

`O=C1NC[C@H](c2cncc(C(F)(F)F)c2)[C@H]1C(=O)Nc1cccc(F)c1F` [Compound 1394]: the pest or weed control at 125 g/ha in [1] worked out at 0%; in experiment [2] it was 80%; in experiment [3] it was 0%; in experiment [4], 0%; in experiment [5], 0%; in experiment [6], 50%. Besides, the pest or weed control at 125 g/ha in [7] was determined as 90%; in the experiment on Kochia (Kochia scoparia), 0%. Moreover, the pest or weed control at 500 g/ha in [1] was 60%; in [2] it was 90%; in [3] it was 20%; in [4] it was 20%; in experiment [5], 20%; in [6] it was 60%. Besides, the pest or weed control at 500 g/ha is 90% in [7] and 0% with Kochia (Kochia scoparia). In the experiment on corn (Zea mays), this compound returned a Corn plant response rating (crop injury, 0 = no effect, 100 = complete kill) at 125 g/ha of 40%. The compound also registered a Corn plant response rating (crop injury, 0 = no effect, 100 = complete kill) at 500 g/ha in the experiment on corn (Zea mays) of 70%. The plant injury at 125 g/ha in experiment [8] was 0%. The plant injury at 500 g/ha in [8] was 60%. The pest or weed control at 250 g/ha was found to be 0% in experiment [9], 10% in the experiment on rice (Oryra sativa), 75% in experiment [10] and 40% in [11].
